Reference: US20120295982A1, “TREATING HUMAN MALE COPD PATIENTS WITH ORAL BEDORADRINE” (MediciNova, Inc., priority 2011, published 2012)
Structures can show the parent of a compound that is named as a salt.

Assay: Phase I open-label single-dose crossover oral bioavailability / PK test of bedoradrine sulfate in healthy volunteers
Assay type: in vivo, human
Conditions: for clearance: CL; for Vd: Vss; for half-life: t½
Description: The test was an open-label, randomized, crossover, single dose test of 600 μg (0.6 mg) bedoradrine sulfate in liquid form administered orally and of 300 μg (0.3 mg) bedoradrine sulfate administered by i.v. infusion. All subjects were in an overnight fasting state. Four male and four female subjects were enrolled in the test and received two administration sequences: Day 1: n=4 received 15-minute intravenous infusion of bedoradrine sulfate (300 μg), the other 4 received an oral administration of bedoradrine sulfate (600 μg); Day 8: the 4 subjects administered i.v. MN-221 on Day 1, received oral bedoradrine sulfate and the 4 subjects administered orally with MN-221 on Day 1, receive i.v. bedoradrine sulfate. Subjects were domiciled in the clinical research unit (CRU) for two nights, beginning on Day minus one (−1), one day prior to dosing. First dosing occurred in the morning of Day 1. Subjects were discharged from the CRU approximately 24 hours after dosing (Day 2). There was a one-week washout between doses and subjects returned to the CRU (Day 7) and were domiciled for two days. On the morning of Day 8, subjects received the opposite dosing state (from Day 1) and subjects were then discharged from the CRU approximately 24 hours after dosing (Day 9). Blood samples for plasma selection and bioanalysis were collected on the dosing days before dosing (baseline) and at 0.25, 1, 1.5, 2, 3, 4, 6, 9, 12, and 24 hr after dosing. The bioanalytical results were obtained following HPLC/MS/MS procedures. The limit of quantitation (LLOQ) for these methods was 30.3 picogram (pg)/mL. Plasma MN-221 concentrations were tabulated separately by subject and sampling time and summarized by descriptive statistics. Descriptive statistics included the sample size, mean, standard deviation, median, range, and the coefficient of variation (CV %). Mean plasma concentration-time profiles were illustrated graphically. All plasma concentrations below the limit of quantitation (BLQ) values occurring at predose and up to the first measurable concentration may otherwise be imputed as 1 pg/mL in some analyses or LLOQ. Pharmacokinetic parameters were calculated from individual plasma concentrations-time data by model-independent analysis methods using WinNonlin™. The following parameters were calculated: Cmax (observed maximum plasma concentration), tmax (observed time of maximum plasma concentration), t1/2 (terminal half-life calculated as ln(2)/λz), AUC0-24 (area under the plasma concentration-time curve calculated using the linear trapezoidal rule from time zero to time 24 hr), vss (volume of distribution at steady state), Cl (clearance), and Oral F % (% oral bioavailability). All pharmacokinetic parameters were summarized using descriptive statistics that included the sample size, mean, standard deviation, median, range, and coefficient of variation. Select t-test or non-parametric statistical analysis was optional.

[1] = both sexes, human, in vivo, iv, 300 ug, mean
[2] = both sexes, human, in vivo, iv, 300 ug, median
[3] = both sexes, human, in vivo, iv, 300 ug, range
[4] = both sexes, human, in vivo, po, 600 ug, mean
[5] = both sexes, human, in vivo, po, 600 ug, median
[6] = both sexes, human, in vivo, po, 600 ug, range
[7] = both, human, in vivo, po, 600 ug
[8] = female, human, in vivo, po, 600 ug
[9] = human one, in vivo, iv, 300 ug, individual subject
[10] = human two, in vivo, iv, 300 ug, individual subject

SMILES: CN(C)C(=O)COc1ccc2c(c1)C[C@@H](NC[C@H](O)c1ccc(O)c(CCO)c1)CC2 [MN-221, bedoradrine sulfate]
- fold lower oral peak level than Cmax after i.v. dosing (0.6 mg oral vs 0.3 mg i.v.): > 30 fold
- AUC (both sexes, human, in vivo, iv, 0.3 mg): ~13 ng·h/mL
- AUC(0-t) (both sexes, human, in vivo, iv, 300 ug, AUC 0-24 h, mean): 13.2 ng·h/mL
- AUC(0-t) (both sexes, human, in vivo, iv, 300 ug, AUC 0-24 h, median): 14.1 ng·h/mL
- AUC(0-t) (both sexes, human, in vivo, iv, 300 ug, AUC 0-24 h, range): 9.31 to 15.5 ng·h/mL
- clearance [1]: 322 mL/min
- clearance [2]: 307 mL/min
- clearance [3]: 252 to 425 mL/min
- Cmax (both sexes, human, in vivo, iv, 300 ug, Cmax, mean): 10.7 ng/mL
- Cmax (both sexes, human, in vivo, iv, 300 ug, Cmax, median): 12.2 ng/mL
- Cmax (both sexes, human, in vivo, iv, 300 ug, Cmax, range): 6.76 to 14.8 ng/mL
- Tmax [1]: 0.25 h
- Tmax [2]: 0.25 h
- Vd [1]: 222 L
- Vd [2]: 206 L
- Vd [3]: 149 to 325 L
- half-life [1]: 12.2 h
- half-life [2]: 12.5 h
- half-life [3]: 7.4 to 14.6 h
- AUC(0-t) (both sexes, human, in vivo, po, 600 ug, AUC 0-24 h, mean): 1.94 ng·h/mL
- AUC(0-t) (both sexes, human, in vivo, po, 600 ug, AUC 0-24 h, median): 1.85 ng·h/mL
- AUC(0-t) (both sexes, human, in vivo, po, 600 ug, AUC 0-24 h, range): 1.05 to 3.02 ng·h/mL
- Cmax (both sexes, human, in vivo, po, 600 ug, Cmax, mean): 0.305 ng/mL
- Cmax (both sexes, human, in vivo, po, 600 ug, Cmax, median): 0.301 ng/mL
- Cmax (both sexes, human, in vivo, po, 600 ug, Cmax, range): 0.163 to 0.5 ng/mL
- Tmax [4]: 1.2 h
- Tmax [5]: 1.5 h
- Tmax [6]: 0.25 to 2 h
- half-life [4]: 16 h
- half-life [5]: 15.2 h
- half-life [6]: 11 to 23 h
- fold lower AUC following oral dosing than at the i.v. dose (both, human, in vivo): about 7 fold
- time at which plasma concentrations peaked (both, human, in vivo, iv): 0.25 h
- time to reach maximal plasma concentrations (both, human, in vivo, po): ≤ 2 h
- Tmax, median [7]: approximately 1.5 hr
- t½, mean [7]: 16.1 h
- AUC(0-t) (female, human, in vivo, iv, 300 ug, AUC0-24 h mean): 14.9 ng·h/mL
- AUC(0-t) (female, human, in vivo, iv, 300 ug, AUC0-24 h range): 13.9 to 15.5 ng·h/mL
- Cmax (female, human, in vivo, iv, 300 ug, Cmax mean): 13.1 ng/mL
- Cmax (female, human, in vivo, iv, 300 ug, Cmax range): 12.1 to 14.8 ng/mL
- oral F % mean [8]: 4.9%
- oral F % range [8]: 3.4-6.1%
- AUC(0-t) (female, human, in vivo, po, 600 ug, AUC0-24 h mean): 1.45 ng·h/mL
- AUC(0-t) (female, human, in vivo, po, 600 ug, AUC0-24 h range): 1.05 to 1.79 ng·h/mL
- Cmax (female, human, in vivo, po, 600 ug, Cmax mean): 0.221 ng/mL
- Cmax (female, human, in vivo, po, 600 ug, Cmax range): 0.163 to 0.299 ng/mL
- AUC(0-t) (human one, in vivo, iv, 300 ug, AUC 0-24 h, individual subject): 10.7 ng·h/mL
- clearance [9]: 423 mL/min
- Cmax (human one, in vivo, iv, 300 ug, Cmax, individual subject): 6.76 ng/mL
- Tmax [9]: 0.25 h
- AUC(0-t) (human one, in vivo, po, 600 ug, AUC 0-24 h, individual subject): 2.14 ng·h/mL
- Tmax (human one, in vivo, po, 600 ug, individual subject): 1.5 h
- AUC(0-t) (human two, in vivo, iv, 300 ug, AUC 0-24 h, individual subject): 15.5 ng·h/mL
- clearance [10]: 252 mL/min
- Cmax (human two, in vivo, iv, 300 ug, Cmax, individual subject): 14.8 ng/mL
- Tmax [10]: 0.25 h
- Vd [10]: 225 L
- half-life [10]: 14.6 h
- AUC(0-t) (human two, in vivo, po, 600 ug, AUC 0-24 h, individual subject): 1.05 ng·h/mL
- Cmax (human two, in vivo, po, 600 ug, Cmax, individual subject): 0.163 ng/mL
- oral F % in men relative to women (human, in vivo, po, 600 ug): two-fold greater
- AUC(0-t) (male, human, in vivo, iv, 300 ug, AUC0-24 h mean): 11.5 ng·h/mL
- AUC(0-t) (male, human, in vivo, iv, 300 ug, AUC0-24 h range): 9.31 to 14.3 ng·h/mL
- Cmax (male, human, in vivo, iv, 300 ug, Cmax mean): 8.42 ng/mL
- Cmax (male, human, in vivo, iv, 300 ug, Cmax range): 6.76 to 12.3 ng/mL
- oral F % mean (male, human, in vivo, po, 600 ug): 11.1%
- AUC(0-t) (male, human, in vivo, po, 600 ug, AUC0-24 h mean): 2.44 ng·h/mL
- AUC(0-t) (male, human, in vivo, po, 600 ug, AUC0-24 h range): 1.91 to 3.02 ng·h/mL
- Cmax (male, human, in vivo, po, 600 ug, Cmax mean): 0.389 ng/mL
- Cmax (male, human, in vivo, po, 600 ug, Cmax range): 0.303 to 0.5 ng/mL
